We go through 2 molecules from article PMC11173533, “Baicalin and Baicalein Enhance Cytotoxicity, Proapoptotic Activity, and Genotoxicity of Doxorubicin and Docetaxel in MCF-7 Breast Cancer Cells” (Molecules, 2024).

Experiment [1] has as its system cleaved PARP in MCF-7 cells. Put plainly: Cleaved PARP In-Cell ELISA in MCF-7 cells. It counts as cell-based, human. Conditions: docetaxel + flavonoid IC50, most intense of all times and combinations. Here is the method:
(§1) Unless otherwise indicated, in experiments, cells were seeded at an appropriate density for the specific assay into 96-well plates or Petri dishes. They were then incubated in standard culture conditions, which included a temperature of 37 °C, 100% relative humidity, and a 5% CO2 incubator. […] After treatment, the cells were washed with PBS and, depending on the experiment, immediately used for measurement or cultured in a fresh medium for 24 or 48 h. Control cells were treated with a corresponding volume of PBS. Additional controls for solvents were also performed.
(§2) The expression of the protein was monitored using a target-specific primary antibody against an 85 kDa stable fragment of PARP proteolysis and a horseradish peroxidase-conjugated detection reagent.
(§3) The amount of cleaved PARP was measured in cells according to the manufacturer’s protocol immediately after the treatment and after 24 or 48 h postincubation. The absorbance was measured at a wavelength of λ = 450. Additionally, the whole cell staining was performed with Janus Green dye, and the absorbance was measured at a wavelength of λ = 615. […] Subsequently, the values were calculated as a fold increase, which means the ratio of an increased amount of cleaved PARP to the amount of cleaved PARP in control cells.

Experiment [2] deals with MCF-7 cell. The arrangement: method as in Wang et al. [49]. Conditions: 5–100 µmol/L for 72 h; ref Wang et al. [49]; cited from earlier work.
The test system of another experiment is HUVEC-ST cells. As to the kind of experiment: Alkaline comet assay in HUVEC-ST cells. It is filed as cell-based, human. Conditions: doxorubicin IC50 + flavonoid IC50 preincubation, longest postincubation time (48 h). Here is the method:
as §1
(§4) The comet assay, also known as the single-cell gel electrophoresis assay, is a highly sensitive and versatile method for measuring single- and double-stranded DNA breaks. The assay uses an electric field to move negatively charged DNA fragments through an agarose gel. The amount of migration reflects the level of DNA damage in the cells.
The analysis was performed under alkaline conditions, according to the method of Singh et al., on cells immediately after the treatment and 24 or 48 h postincubation. A suspension of cells was mixed with low-melting-point agarose (LMP type XI) and spread onto a microscope glass slide previously coated with standard melting point agarose (NMP type I). After 2 h of cells lysis in a buffer containing (2.5 mol/L NaCl, 100 mmol/L Na2-EDTA, 10 mmol/L TRIS, 1% Triton X-100), DNA unwinding and electrophoresis were carried out in a buffer containing (1 mmol/L Na2-EDTA, 300 mmol/L NaOH) and (29 V, 30 mA). Before analysis, the slides were stained with DAPI solution (2 μg/mL). One hundred randomly chosen cells were analyzed on each slide using a fluorescence microscope Zeiss Axio Scope A1 (Carl Zeiss, Oberkochen, Germany) with a video camera connected to the image-analysis system Lucia-Comet v. 7.60 (Laboratory Imaging, Praha, Czech Republic).

Experiment [3] deals with MCF-7 cell. Further details: method as in Liu et al. [48]. Conditions: ref Liu et al. [48]; read-out: IC50, MCF-7 cell growth inhibition; cited from earlier work.
The test system of a further experiment is MCF-7 cells. As to the kind of experiment: Alkaline comet assay in MCF-7 cells. It is filed as cell-based, human. The procedure:
as §1, §4
The analysis was performed under alkaline conditions, according to the method of Singh et al., on cells immediately after the treatment and 24 or 48 h postincubation. […] One hundred randomly chosen cells were analyzed on each slide using a fluorescence microscope Zeiss Axio Scope A1 (Carl Zeiss, Oberkochen, Germany) with a video camera connected to the image-analysis system Lucia-Comet v. […]

The test system of the next experiment is MRP2. The arrangement: method as in PMID 15670588. Conditions: 25 µmol/L; ref [65]; cited from earlier work.
The subject of a further experiment is MRP1. Further details: method as in PMID 15670588. Conditions: 25 µmol/L; ref [65]; cited from earlier work.
Experiment [4] relates to cleaved PARP in HUVEC-ST cells. Put plainly: Cleaved PARP In-Cell ELISA in HUVEC-ST cells. It counts as cell-based, human. Here is the method: as §1, §2, §3
Background: ELISA stands for enzyme-linked immunosorbent assay.

For `O=C(O)[C@H]1O[C@@H](Oc2cc3oc(-c4ccccc4)cc(=O)c3c(O)c2O)[C@H](O)[C@@H](O)[C@@H]1O` [baicalin, baicalein 7-O-β-D-glucuronide], in experiment [1], the “PARP cleavage, fold increase to control” value is listed as 2.5 fold. In the experiment on MCF-7 cell [2], the “Inhibitory effect on MCF-7 cell proliferation” value is “did not observe any inhibitory effect”. Moreover, the “DNA in the comet tail” value in the experiment with HUVEC-ST cells is recorded as 3%.
Regarding `O=c1cc(-c2ccccc2)oc2cc(O)c(O)c(O)c12` [baicalein, 5,6,7-Trihydroxyflavone], the IC50 (in general, the concentration at which inhibition is half-maximal) in the experiment with MCF-7 cell [3] was 85.1 ± 1.26 µM. The “DNA in the comet tail” value in the experiment with MCF-7 cells (docetaxel IC50 + flavonoid IC50, 24 h after incubation) turned out to be 16%; in the experiment on MCF-7 cells (docetaxel IC50 + flavonoid IC50, immediately after incubation), 19%; with HUVEC-ST cells it was 5%. The “Inhibition of MRP2 protein activity” value in the experiment on MRP2 was “inhibit the activity of MRP2 and MRP1 proteins”. Further, in the experiment on MRP1, the “Inhibition of MRP1 protein activity” value is “inhibit the activity of MRP2 and MRP1 proteins”. The “Amount of cleaved PARP relative to control cells” value in experiment [4] (doxorubicin + flavonoid IC50, 48 h after incubation) is given as “twice higher than in control cells”; in experiment [4] (flavonoid IC50 alone, 24 and 48 h after incubation), “nearly two times higher than in control cells”.
